# Source: patent publication US5274076A, “Hydrophilic derivatives, their application to diagnosis and to therapeutics, diagnostic or therapeutic kits and immunological reagents” (Immunotech Partners, priority 1989, dated 1993)
# Residues, ends and D or L forms follow the SMILES beside them. Groups on a side chain read outwards from the residue. *: point of attachment. DTPA = O=C(O)CN(CCN(CC(=O)O)CC(=O)O)CCN(CC(=O)O)CC(=O)*
# Key:
# [1] = Tolerance to probes in animals; type: in vivo, BALB/c mice; conditions: 10 nanomoles, observed 16 days; compounds 1 and 2 complexed with non-radioactive indium
# Experimental: Doses corresponding to 10 nanomoles, i.e. about 10,000 times more than the dose required for radioimmunoscintigraphy, of compounds 1 and 2 previously complexed with non-radioactive indium and compound 3 are administered to BALB/c mice. These mice are then observed for 16 days under normal breeding conditions.
# [2] = test system: human melanoma cells (A375); test: Comparison of indium-111-labelled probes in the labelling of tumours in mice (tumour/organ contrast); type: in vivo, nude mice; conditions: for Contrast cpm/g in the tumour/cpm/g in the organ: Heart / Contrast cpm/g in the tumour/cpm/g in the organ: Kidneys / Contrast cpm/g in the tumour/cpm/g in the organ: Liver / Contrast cpm/g in the tumour/cpm/g in the organ: Lung / Contrast cpm/g in the tumour/cpm/g in the organ: Plasma / Contrast cpm/g in the tumour/cpm/g in the organ: Spleen: 3 hours after injection of the radiolabelled probe
# Experimental: (§1) 3.10^6 human melanoma cells (A375) are injected subcutaneously into the abdomen of nude mice. 3 to 4 weeks later the mice develop tumours of 0.5 to 2 g. The mice are then injected with 2 to 10 μg of dual specificity conjugate prepared by chemical coupling of the F(ab)'2 fragment of a […] anti-melanoma antibody (mouse monoclonal antibody IgG1, kappa) to the reduced F(ab)'2 fragment of an anti-DTPA-indium antibody (mouse monoclonal antibody IgG1, lambda) using the heterobifunctional reagent EMCS.
# (§2) Twenty four hours later, mice are injected with 10 μCi of the derivative of Example 1 labelled with indium-111. Images are then produced at selected time intervals using a Sopha Medical Gammatome 2 gamma camera equipped with a medium energy high-resolution collimator or the animals are killed and the major organs and the tumour are measured for radioactivity associated with indium-111 using a gamma counter.
# Comparison between compound 1 labelled with indium-111 and di-(DNP-lys)-DTPA in the labelling of tumours in mice.
# Experiments are carried out as in Example 5 but the mice are given indium-111-labelled di-(DNP-lys)-DTPA (derivative 1 of French Patent Application 86.13146) instead of the derivative 1 described above. Three hours after injection of the probe, the mice are dissected and the gamma radioactivity of the major organs and tumour is counted. It is observed that the tumour accumulates a dose of radioactivity equivalent to that Obtained with the two compounds of Example 1 of the present invention. However, the elimination of the excess radioactivity is substantially more rapid with the compounds of the present invention, as shown by the following table: […]
# [3] = test system: human melanoma cells (A375); test: Radioimmunoscintigraphy and organ radioactivity counting of human melanoma grafted on nude mice, pretargeted with anti-melanoma anti-DTPA-indium dual specificity conjugate; type: in vivo; conditions: for specificity of tumour binding: A375 tumour in nude mice
# Experimental: Radioimmunoscintigraphy of human melanoma grafted on to nude mice with anti-melanoma anti-DTPA indium dual specificity conjugates and N-α-DTPA-tyrosyl-N-ε-DTPA-lysine labelled with indium 111.
# as §1, §2
# [4] = indium-111 labelled, after dual specificity conjugate
# [5] = radioactivity measured after 24 hours
Compound,signs of toxicity [1],weight gain versus control animals [1],Contrast cpm/g in the tumour/cpm/g in the organ: Heart [2],Contrast cpm/g in the tumour/cpm/g in the organ: Kidneys [2],Contrast cpm/g in the tumour/cpm/g in the organ: Liver [2],Contrast cpm/g in the tumour/cpm/g in the organ: Lung [2],Contrast cpm/g in the tumour/cpm/g in the organ: Plasma [2],Contrast cpm/g in the tumour/cpm/g in the organ: Spleen [2],specificity of tumour binding [3],other results
"O=C(O)CN(CCN(CC(=O)O)CC(=O)O)CCN(CC(=O)O)CC(=O)NCCCC[C@H](NC(=O)[C@H](Cc1ccc(O)cc1)NC(=O)CN(CCN(CCN(CC(=O)O)CC(=O)O)CC(=O)O)CC(=O)O)C(=O)O [Example 1, N-α-DTPA-tyrosyl-N-ε-DTPA-lysine] ({DTPA}-Tyr-Lys(DTPA)-OH)",No sign of toxicity,not significantly different,14.9,3.5,10.8,8.2,1.7,12.7,specific,"tumour accumulation of radioactivity without dual specificity conjugate or with conjugate specific for another tumour antigen ([3]; control without or with irrelevant conjugate): did not accumulate significant amounts of radioactivity; time after injection at which tumours can be observed on gamma camera images ([3]; indium-111 labelled, 10 μCi, 24 h after dual specificity conjugate): Only a few minutes; non-specific accumulation of radioactivity [3, 4]: essentially limited to the kidneys; time in which a large majority of the circulating radioactivity is eliminated [3, 4]: less than 24 hours; time in which radioactivity bound to the tumour is established [3, 4]: within a few hours; time radioactivity bound to the tumour remains stable [3, 4]: at least two days; tumour/organ ratio (T/O), all organs except the kidneys [3, 5]: > 3; tumour/organ ratio (T/O), kidneys [3, 5]: 0.7"
di-(DNP-lys)-DTPA [derivative of the prior art],–,–,2.1,1.0,1.3,0.9,0.2,1.8,–,"dose of radioactivity accumulated by the tumour compared with Example 1 ([2]; 3 hours after injection, indium-111 labelled): equivalent"
"O=C(CCC(=O)NCC(=O)NCCCC[C@H](NC(=O)CNC(=O)CCC(=O)NCCc1cnc[nH]1)C(=O)N[C@@H](Cc1ccc(O)cc1)C(=O)O)NCCc1cnc[nH]1 [Example 3, N-α-N-ε-di-(histamine-succinyl-glycyl)-lysyl-tyrosine]",No sign of toxicity,not significantly different,–,–,–,–,–,–,–,–
"O=C(O)CN(CCN(CC(=O)O)CC(=O)O)CCN(CC(=O)O)CC(=O)NCC(=O)NCCCC[C@H](NC(=O)CNC(=O)CN(CCN(CCN(CC(=O)O)CC(=O)O)CC(=O)O)CC(=O)O)C(=O)N[C@@H](Cc1ccc(O)cc1)C(=O)O [Example 2, N-α-N-ε-di-(DTPA-glycyl)-lysyl-tyrosine] ({DTPA}-Gly-Lys([Gly-DTPA])-Tyr-OH)",No sign of toxicity,not significantly different,–,–,–,–,–,–,–,–
"DTPA [indium-111-labelled DTPA, reference compound]",–,–,–,–,–,–,–,–,little specific binding is observed,"elimination/excretion of radioactivity ([3]; mouse, in vivo): excreted very rapidly"
